Target: T1, HisF (cyclase subunit of imidazole glycerol phosphate synthase, IGPS) (Thermotoga maritima, UniProt Q9X0C6)
T1 sequence (Q9X0C6 1-253): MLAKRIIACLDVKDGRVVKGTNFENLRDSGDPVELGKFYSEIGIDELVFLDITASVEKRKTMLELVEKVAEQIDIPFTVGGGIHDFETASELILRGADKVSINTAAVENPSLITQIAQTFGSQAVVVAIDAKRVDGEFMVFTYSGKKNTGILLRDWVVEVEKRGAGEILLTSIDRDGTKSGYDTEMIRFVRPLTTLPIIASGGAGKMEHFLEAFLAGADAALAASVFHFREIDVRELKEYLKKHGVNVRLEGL
T1 sequence (Q9X0C8 1-201 partner): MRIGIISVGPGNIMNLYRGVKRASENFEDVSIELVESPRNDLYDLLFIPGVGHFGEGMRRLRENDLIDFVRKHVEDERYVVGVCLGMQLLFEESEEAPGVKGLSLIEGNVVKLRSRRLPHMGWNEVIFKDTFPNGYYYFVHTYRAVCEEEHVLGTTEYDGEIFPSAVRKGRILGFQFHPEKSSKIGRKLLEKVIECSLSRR
Test: 1H-15N TROSY NMR titration, global fit of chemical shift changes of […] residues
Type: binding

## O=P(O)(O)OC[C@@H](O)[C@@H](O)c1c[nH]cn1 [IGP]
  Kd: 500 ± 100 µM
